# Results from patent EP2874643B1, “OSTEOPROTEGERIN DERIVED COMPOSITION AND USE THEREOF” (R-Pharm International, LLC, priority 2012, dated 2013).
# Marks after values point to notes of the source that are not given here.
# How the values were obtained:
# [1] = tested on: MDA-MB-468 human breast cancer cells; conditions: mouse, in vivo
# [2] = tested on: MDA-MB-468 human breast cancer cells; experiment: murine bone lytic model of human breast cancer (intratibial inoculation); conditions: 0.1 mg/kg, i.v.; for Mean X-Ray Score of Bone Lysis in Inoculated Tibiae: scale 0 (no lysis) to 4, enlarged muscle + 0.5
# [3] = biological target: RANKL (receptor activator of NF-kappaB ligand); experiment: cell-based or functional assay
# [4] = MicroCT scan of inoculated tibia at termination, mean
Molecule,adverse clinical signs [1],"Survival (Number Alive/Total) ([2]; 3 times weekly for 6 weeks, end of study)",Mean X-Ray Score of Bone Lysis in Inoculated Tibiae ([2]; 6 weeks Post-Inoculation),Mean X-Ray Score of Bone Lysis in Inoculated Tibiae ([2]; 8 weeks Post-Inoculation),"Structure Model Index (SMI) [2, 4]","Total Bone Volume (TBV) [2, 4]","Trabecular Bone Volume 3 (Tb.BV) [2, 4]","Trabecular Pattern Factor (Tb.Pf) [2, 4]",concentration that completely blocks RANKL-induced osteoclast differentiation (RAW264.7 cells) [3] [ng/mL],"inhibition of RANKL-induced osteoclast differentiation (RAW264.7 cells), EC50 [3] [µg/mL]"
"O=P(O)(O)C(O)(Cn1ccnc1)P(=O)(O)O [Zometa, Zoledronic Acid]",No adverse clinical signs were observed,12/12,0.2 ^a,0.5 ^a,1.831 ^a,6.799 ^a mm^3,0.614 ^a mm^3,10.458 ^a mm^--1,–,–
hOPG-hIgG1-Fc polypeptide of SEQ ID NO. 1 (Fc fusion),–,–,–,–,–,–,–,–,100,0.05
